Experimental data: patent US20160184434A1, “AGENT FOR PROMOTING IN VIVO ABSORPTION OF HYDROXYTYROSOL AND DERIVATIVES THEREOF AND USE OF SAME” (priority 2013, published 2016)

Key:
[1] = Blood hydroxytyrosol after oral administration with EGCG or EGC (Example 1, HPLC); assay type: in vivo, SD (IGS) male rats; details: rats
Excerpt: The present inventors analyzed the influence of the particular compound having a galloyl group, i.e., EGCG, on the absorption of hydroxytyrosol in the body. At the same time, the inventors also analyzed the influence of EGC, a compound having no galloyl group, on the absorption of hydroxytyrosol in the body. By comparing the results for EGCG with those for the control, we investigated whether the galloyl group is involved in the absorption of hydroxytyrosol in the body.
SD (IGS) male rats (5 weeks old) were purchased from Oriental Bioservice, Inc. and habituated to the test environment for one week, and then those rats which were well grown were put to use in the selected test. Those rats fasted overnight were divided into three groups each consisting of 4 or 5 animals. Group 1 (control) was given 5 mL/kg of distilled water and 50 mg/5 mL/kg of a commercial hydroxytyrosol solution in distilled water; Group 2 was given 100 mg/5 mL/kg of an EGC solution in distilled water and 50 mg/5 mL/kg of a hydroxytyrosol solution in distilled water; and Group 3 was given 150 mg/5 mL/kg of an EGCG solution in distilled water and 50 mg/5 mL/kg of a hydroxytyrosol solution in distilled water—all of the groups were orally administered using a sonde. Before and at 0.25, 0.5, 1, 3 and 6 hours after the start of treatment, blood was sampled from the tail vein using a heparin-coated blood collection tube and centrifuged (at 8000 rpm for 10 min) to obtain plasma samples. The obtained plasma samples were subjected to deconjugation and deproteinization treatments, and the resulting supernatants were concentrated under reduced pressure, redissolved in 20% acetonitrile, and passed through a filter. The resulting solutions were analyzed by HPLC to determine their peak areas. Thus, quantification of hydroxytyrosol was performed. The EGCG used in this example was a commercially available EGCG product (EGCG purity: 94%). The HPLC conditions are shown below.
Column: X-bridge C18 (3.5 μm, 2.1×150 mm, produced by Waters)
Mobile phase: A: 0.1% acetic acid solution in water, B: 0.1% acetic acid/90% acetonitrile solution in water

[2] = Blood hydroxytyrosol after oral administration with 500 mg/kg grape seed extract (Example 2, LC/MS/MS); assay type: in vivo, SD (IGS) male rats; details: rats, hydroxytyrosol 30 mg/kg alone
Procedure: The present inventors investigated the influence of an OPC on the absorption of hydroxytyrosol in the body.
SD (IGS) male rats (9 weeks old) were purchased from Oriental Bioservice, Inc. and habituated to the test environment for one week, and then those rats which were well grown were put to use in the selected test. Those rats fasted overnight were divided into two groups each consisting of 5 or 6 animals. Group 1 (control) was given 30 mg/5 mL/kg of a hydroxytyrosol solution in distilled water; and Group 2 was given 30 mg/kg of hydroxytyrosol plus 5 mL/kg of a solution of 500 mg/kg grape seed extract in distilled water—both of the groups were orally administered using a sonde. Before and at 0.25, 0.5, 1, 2, 3 and 6 hours after the start of treatment, blood was sampled from the tail vein using a heparin-coated blood collection tube and centrifuged (at 8000 rpm for 10 min) to obtain plasma samples. The obtained plasma samples were subjected to deconjugation and deproteinization treatments, and the resulting supernatants were concentrated under reduced pressure, redissolved in 20% acetonitrile, and passed through a filter. The resulting solutions were analyzed by LC/MS/MS, and quantification of hydroxytyrosol was performed using the internal standard method. HPLC conditions
Internal standard (I.S.): 3-(4-hydroxyphenyl)-1-propanol […]

[3] = Blood hydroxytyrosol after oral administration with reduced doses of grape seed extract (Example 3); assay type: in vivo; details: male, SD (IGS), rat, rats, hydroxytyrosol 30 mg/kg alone (control), plasma, read-out: AUC of hydroxytyrosol at 0 to 6 hours
Excerpt: The present inventors investigated whether the same promoting effect on the absorption of hydroxytyrosol in the body as observed in Example 2 can be observed even if the dose of the grape seed extract is reduced.
SD (IGS) male rats (9.5 weeks old) were purchased from Oriental Bioservice, Inc. and habituated to the test environment for two weeks, and then those rats which were well grown were put to use in the selected test. Those rats fasted overnight were divided into three groups each consisting of 4 animals. Group 1 (control) was given 30 mg/5 mL/kg of a hydroxytyrosol solution in distilled water; Group 2 was given 30 mg/kg of hydroxytyrosol plus 5 mL/kg of a solution of 150 mg/kg grape seed extract in distilled water; and Group 3 was given 30 mg/kg of hydroxytyrosol plus 5 mL/kg of a solution of 250 mg/kg grape seed extract in distilled water—all of the groups were orally administered using a sonde. Before and at 0.25, 0.5, 1, 2, 3 and 6 hours after the start of treatment, blood was sampled from the tail vein using a heparin-coated blood collection tube and centrifuged (at 8000 rpm for 10 min) to obtain plasma samples. […] The resulting solutions were analyzed by LC/MS/MS, and quantification of hydroxytyrosol was performed using the internal standard method. […]

[4] = Blood hydroxytyrosol after oral administration with 150 to 750 mg/kg grape seed extract (Example 4); assay type: in vivo; details: male, SD (IGS), rat, rats, hydroxytyrosol 30 mg/kg alone (control), plasma, read-out: AUC of hydroxytyrosol at 0 to 6 hours
Procedure: The present inventors investigated whether the same promoting effect on the absorption of hydroxytyrosol in the body can be observed even if the dose of the grape seed extract is further increased in the same test system as used for the investigations in Examples 2 and 3. […] The method for calculating this purity will be presented later in Example 5. Also, the amount of a galloyl group contained in the grape seed extract was measured as the amount of a galloyl ester and determined to be about 2.2% by weight. The method for calculating this amount will be presented later in Example 6.
SD (IGS) male rats (8 weeks old) were purchased from Oriental Bioservice, Inc. and habituated to the test environment for one week, and then those rats which were well grown were put to use in the selected test. Those rats fasted overnight were divided into five groups each consisting of 4 animals (however, Group 5 consists of 2 animals). […]
The obtained plasma samples were subjected to deconjugation and deproteinization treatments, and the resulting supernatants were concentrated under reduced pressure, redissolved in 20% acetonitrile, and passed through a filter. The resulting solutions were analyzed by LC/MS/MS, and quantification of hydroxytyrosol was performed using the internal standard method. […]

[5] = hydroxytyrosol 50 mg/kg concurrently with EGCG 150 mg/kg

Row | Structure (SMILES) | blood hydroxytyrosol concentration after its peak (absorption profile) [1, 5] | time at which blood hydroxytyrosol concentration reached its peak [1, 5] | blood hydroxytyrosol at 2 or 3 hours after administration [2] | AUC [3] | AUC ([1]; male, SD (IGS), rat, hydroxytyrosol 50 mg/kg alone (control), plasma, read-out: AUC of hydroxytyrosol (amount absorbed in the body)) | time at which blood hydroxytyrosol concentration reached its peak ([1]; hydroxytyrosol 50 mg/kg alone) | AUC [4]
1 | O=C(O[C@@H]1Cc2c(O)cc(O)cc2O[C@@H]1c1cc(O)c(O)c(O)c1)c1cc(O)c(O)c(O)c1 [EGCG, epigallocatechin gallate] | kept high even thereafter | 30 min | – | – | – | – | –
2 | OCCc1ccc(O)c(O)c1 [hydroxytyrosol, 3,4-dihydroxyphenylethanol] | – | – | little or no hydroxytyrosol was detected | 8640 ng·h/mL | 12000 ng·h/mL | 18 min | 7360 ng·h/mL
